Reference: patent US20080226571A1, “Compositions and methods to effect enhanced photoprotection against UV A and UV B induced damage of human skin” (priority 2007, published 2008)
Marks after values point to notes of the source that are not given here.

Columns and labels:
Format in all cases: cell-based
[1] = tested on: B16F1 mouse melanoma cells; assay: Intracellular melanin enhancement; settings: for Folds of Melanin Enhancement compared to control: Table E; for melanin enhancement activity, comparison in words: Tables C and E
Protocol: B16F1 mouse melanoma cells are treated with varying concentrations of actives I, II and III and other optional actives or combinations thereof at a time interval of 3 days for nine consecutive days. The intracellular melanin in both the controls and test B16F1 mouse melanoma cells is extracted by 1 N NaOH and subjected to a heat treatment at 100° C. The extracted melanin is estimated at 405 nm in a Fluostar Optima Microplate Reader.

[2] = tested on: HaCaT human keratinocyte cell line; assay: UV B protection of HaCaT keratinocytes, oral application model (Protocol II)
Protocol: (§1) The protocol is based on evaluating the reduction in photo damage caused by UV A and UV B in HaCaT human keratinocyte cell line. The cell viability is measured by Sulphorhodamine B assay (SRB assay) after exposure to UV rays. The percentage of UV protection is calculated based on the number of viable cells in the control (untreated) and test HaCaT human keratinocytes (treated with the labdane-diterpenoids based composition of the present invention) after UV exposure. The photoprotection assays to screen compounds for their UV protection efficacy during topical and oral applications as discussed in J Am Acad Dermatol 2003; 49: 458-472 is adopted as a reference.
(§2) Protocol II—Screening compounds suited for oral applications for UV protection efficacy 0.5×10^4 HaCaT human keratinocyte cells/well are counted and seeded into a 96 well micro titer plates. The cells are incubated at 37° C. in 5% CO2 for 24 hours. The growth medium is then removed and replaced with medium containing varying concentrations of the labdane-diterpenoids based composition of the present invention. The cells are then incubated for 24 hours to be followed by UV treatment. The UV treated cells are further incubated for 48 hours after which, cell viability is determined using the SRB or neutral red uptake assays.
(§3) The UV A exposure in both the protocols involves three UV A bulbs providing 108 watts of power. The plates are exposed for 1 hour at a distance of 5 cm from the source of light. The UV B exposure in both the protocols involves three UV B bulbs which provide 100 μwatt/cm^2 or 0.14 J/cm^2 irradiation dose. The plates are exposed for 7 minutes at a distance of 30 cm from the source of light.

[3] = tested on: HaCaT human keratinocyte cell line; assay: UV A protection of HaCaT keratinocytes, oral application model (Protocol II)
Protocol: as §1, §2, §3

[4] = tested on: HaCaT human keratinocyte cell line; assay: UV B protection of HaCaT keratinocytes, topical application model (Protocol I, SRB viability); settings: for % UV B protection as compared to control: Table B, Topical model
Protocol: as §1
(§4) Protocol I—Screening compounds suited for topical applications for UV protection efficacy 0.5×10^4 HaCaT human keratinocyte cells/well are counted and seeded into a 96 well micro titer plates. The cells are incubated at 37° C. in 5% CO2 for 24 hours. The growth medium is then removed and replaced with medium containing varying concentrations of the labdane-diterpenoids based composition of the present invention. The cells are immediately exposed to ultraviolet irradiation and further incubated for 72 hours. After 72 hours, the cell viability is determined by SRB assay.
as §3

[5] = tested on: HaCaT human keratinocyte cell line; assay: UV A protection of HaCaT keratinocytes, topical application model (Protocol I, SRB viability); settings: for % UV A protection: Topical model
Protocol: as §1, §4, §3

[6] = summary in words, Table I, HaCaT, topical and oral protocols not separated

COc1c2ccoc2cc2oc(=O)ccc12 [Active 5-MOP, 5-methoxy psoralen]
Folds of Melanin Enhancement compared to control ([1]; 0.25 μg/ml): 1.1 Folds | Folds of Melanin Enhancement compared to control ([1]; 0.5 μg/ml): 1.15 Folds | Folds of Melanin Enhancement compared to control ([1]; 1 μg/ml): 1.5* Folds | Folds of Melanin Enhancement compared to control ([1]; 2 μg/ml): toxic | Folds of Melanin Enhancement compared to control ([1]; 3 μg/ml): toxic | Folds of Melanin Enhancement compared to control ([1]; 5 μg/ml): toxic | Folds of Melanin Enhancement compared to control ([1]; 12 μg/ml): toxic | melanin enhancement activity, comparison in words [1]: comparable to active III but inferior to active I

C/C=C1\C(=O)C[C@H]2[C@@H]3CCC4=CC(=O)CC[C@]4(C)[C@H]3CC[C@]12C [Gugulsterone, Guggulsterone]
Folds of Melanin Enhancement compared to control ([1]; 0.25 μg/ml): 1.15 Folds | Folds of Melanin Enhancement compared to control ([1]; 0.5 μg/ml): 1.25 Folds | Folds of Melanin Enhancement compared to control ([1]; 1 μg/ml): 1.28 Folds | Folds of Melanin Enhancement compared to control ([1]; 2 μg/ml): 1.38 Folds | Folds of Melanin Enhancement compared to control ([1]; 3 μg/ml): 2.38* Folds | Folds of Melanin Enhancement compared to control ([1]; 5 μg/ml): 2.45* Folds | Folds of Melanin Enhancement compared to control ([1]; 12 μg/ml): 2.5* Folds | melanin enhancement activity, comparison in words [1]: comparable to active III but inferior to active I

C=C[C@@]1(C)CC(=O)[C@]2(O)[C@@]3(C)CCCC(C)(C)[C@@H]3[C@H](O)[C@H](OC(C)=O)[C@@]2(C)O1 [7β-Acetoxy-6β,9α-dihydroxy-8,13-epoxy-labd-14-en-11-one]
Folds of Melanin Enhancement compared to control ([1]; 0.25 μg/ml): 1 Folds | Folds of Melanin Enhancement compared to control ([1]; 0.5 μg/ml): 1.1 Folds | Folds of Melanin Enhancement compared to control ([1]; 1 μg/ml): 1.5* Folds | Folds of Melanin Enhancement compared to control ([1]; 2 μg/ml): 1.8* Folds | Folds of Melanin Enhancement compared to control ([1]; 3 μg/ml): 2.2* Folds | Folds of Melanin Enhancement compared to control ([1]; 5 μg/ml): 2.8* Folds | Folds of Melanin Enhancement compared to control ([1]; 12 μg/ml): 3.2* Folds | melanin enhancement activity, comparison in words [1]: comparable to that of active 3

COc1c2occc2cc2ccc(=O)oc12 [Active 8-MOP, 8-Methoxy psoralen]
Folds of Melanin Enhancement compared to control ([1]; 0.25 μg/ml): 1.12 Folds | Folds of Melanin Enhancement compared to control ([1]; 0.5 μg/ml): 1.25 Folds | Folds of Melanin Enhancement compared to control ([1]; 1 μg/ml): 1.4* Folds | Folds of Melanin Enhancement compared to control ([1]; 2 μg/ml): toxic | Folds of Melanin Enhancement compared to control ([1]; 3 μg/ml): toxic | Folds of Melanin Enhancement compared to control ([1]; 5 μg/ml): toxic | Folds of Melanin Enhancement compared to control ([1]; 12 μg/ml): toxic | melanin enhancement activity, comparison in words [1]: comparable to active III but inferior to active I

C=CC1(C)CC(=O)C2C3(C)CCCC(C)(C)C3C(O)C(OC(C)=O)C2(C)O1 (stereo not drawn) [7β-Acetoxy-6β-hydroxy-8,13-epoxy-labd-14-en-11-one]
Folds of Melanin Enhancement compared to control ([1]; 0.25 μg/ml): 1.1 Folds | Folds of Melanin Enhancement compared to control ([1]; 0.5 μg/ml): 1.13 Folds | Folds of Melanin Enhancement compared to control ([1]; 1 μg/ml): 1.4* Folds | Folds of Melanin Enhancement compared to control ([1]; 2 μg/ml): 2* Folds | Folds of Melanin Enhancement compared to control ([1]; 3 μg/ml): 2.1* Folds | Folds of Melanin Enhancement compared to control ([1]; 5 μg/ml): 2.2* Folds | Folds of Melanin Enhancement compared to control ([1]; 12 μg/ml): 3* Folds | melanin enhancement activity, comparison in words [1]: comparable to that of active 3

C=C[C@@]1(C)CC(=O)[C@]2(O)[C@@]3(C)[C@@H](O)CCC(C)(C)[C@@H]3[C@H](OC(C)=O)[C@H](O)[C@@]2(C)O1 [Active II, 6β-acetoxy-8,13-epoxy-1α,7β,9α-trihydroxylabd-14-en-11-one]
% UV B protection ([2]; 0.25 μg/ml): 10* % | % UV B protection ([2]; 0.5 μg/ml): 15* % | % UV B protection ([2]; 1 μg/ml): 18* % | % UV B protection ([2]; 2 μg/ml): 23* % | % UV B protection ([2]; 3 μg/ml): 30* % | % UV B protection ([2]; 5 μg/ml): 35* % | % UV B protection ([2]; 12 μg/ml): 40* % | % UV A protection ([3]; 0.25 μg/ml): 15* % | % UV A protection ([3]; 0.5 μg/ml): 25* % | % UV A protection ([3]; 1 μg/ml): 55* % | % UV A protection ([3]; 2 μg/ml): 75* % | % UV A protection ([3]; 3 μg/ml): 98* % | % UV A protection ([3]; 5 μg/ml): 97* % | % UV A protection ([3]; 12 μg/ml): 98* % | No. of folds of Melanin Enhancement compared to control ([1]; 0.25 μg/ml): 1 folds | No. of folds of Melanin Enhancement compared to control ([1]; 0.5 μg/ml): 1.1 folds | No. of folds of Melanin Enhancement compared to control ([1]; 1 μg/ml): 1.6* folds | No. of folds of Melanin Enhancement compared to control ([1]; 2 μg/ml): 2.3* folds | No. of folds of Melanin Enhancement compared to control ([1]; 3 μg/ml): 3* folds | No. of folds of Melanin Enhancement compared to control ([1]; 5 μg/ml): 3.45* folds | No. of folds of Melanin Enhancement compared to control ([1]; 12 μg/ml): 3.5* folds | dose levels still tolerated and effective, relative to the maximum tolerated dose levels of active III ([1]; mouse): 2.4 times | Melanin enhancement ([1]; summary in words, Table I): Moderate | % UV B protection as compared to control ([4]; 0.25 μg/ml): 0% | % UV B protection as compared to control ([4]; 0.5 μg/ml): 0% | % UV B protection as compared to control ([4]; 1 μg/ml): 15* % | % UV B protection as compared to control ([4]; 2 μg/ml): 25* % | % UV B protection as compared to control ([4]; 3 μg/ml): 28* % | % UV B protection as compared to control ([4]; 5 μg/ml): 30* % | % UV B protection as compared to control ([4]; 12 μg/ml): 35* % | UV protection UV B [4, 6]: Moderate | % UV A protection ([5]; 0.25 μg/ml): 10% | % UV A protection ([5]; 0.5 μg/ml): 13% | % UV A protection ([5]; 1 μg/ml): 18* % | % UV A protection ([5]; 2 μg/ml): 25* % | % UV A protection ([5]; 3 μg/ml): 35* % | % UV A protection ([5]; 5 μg/ml): 45* % | % UV A protection ([5]; 12 μg/ml): 50* % | UV protection UV A [5, 6]: Moderate

CC1(C)[C@@H](O[C@H]2O[C@H](C(=O)O)[C@@H](O)[C@H](O)[C@H]2O[C@@H]2O[C@H](C(=O)O)[C@@H](O)[C@H](O)[C@H]2O)CC[C@]2(C)[C@H]3C(=O)C=C4[C@@H]5C[C@@](C)(C(=O)O)CC[C@]5(C)CC[C@@]4(C)[C@]3(C)CC[C@@H]12 [Glycyrrhizin]
Folds of Melanin Enhancement compared to control ([1]; 0.25 μg/ml): 1.82* Folds | Folds of Melanin Enhancement compared to control ([1]; 0.5 μg/ml): 2.25* Folds | Folds of Melanin Enhancement compared to control ([1]; 1 μg/ml): 2.58* Folds | Folds of Melanin Enhancement compared to control ([1]; 2 μg/ml): 2.76* Folds | Folds of Melanin Enhancement compared to control ([1]; 3 μg/ml): 2.88* Folds | Folds of Melanin Enhancement compared to control ([1]; 5 μg/ml): 2.92* Folds | Folds of Melanin Enhancement compared to control ([1]; 12 μg/ml): 2.95* Folds | melanin enhancement activity, comparison in words [1]: comparable to active III but inferior to active I

CC(C)=CCOc1c2occc2cc2ccc(=O)oc12 [Imperatorin]
Folds of Melanin Enhancement compared to control ([1]; 0.25 μg/ml): 1.08 Folds | Folds of Melanin Enhancement compared to control ([1]; 0.5 μg/ml): 1.25 Folds | Folds of Melanin Enhancement compared to control ([1]; 1 μg/ml): 1.58* Folds | Folds of Melanin Enhancement compared to control ([1]; 2 μg/ml): 1.78* Folds | Folds of Melanin Enhancement compared to control ([1]; 3 μg/ml): 2.58* Folds | Folds of Melanin Enhancement compared to control ([1]; 5 μg/ml): toxic | Folds of Melanin Enhancement compared to control ([1]; 12 μg/ml): toxic | melanin enhancement activity, comparison in words [1]: comparable to active III but inferior to active I

O=C(CCCCc1ccc2c(c1)OCO2)N1CCCCC1 [tetrahydropiperine]
toxicity to cells ([1]; Example 4): toxic to cells | melanin enhancement activity, comparison in words [1]: does not show significant melanin enhancement activity
